What was measured:
[1] = 298.15 K; 100 kPa; Liquid; Vibrating tube method
[2] = refractive index (Na D-line) (dimensionless); conditions: 298.15 K; 101.33 kPa; Liquid; Standard Abbe refractometry
[3] = xn = mol fraction of the nth substance listed; conditions: 298.15 K, 100 kPa, Liquid, Vibrating tube method
[4] = excess molar enthalpy (molar enthalpy of mixing); xn = mol fraction of the nth substance listed; conditions: 298.15 K, 100 kPa, Liquid, Calvet calorimetry

CC(C)CC(C)(C)C [2,2,4-trimethylpentane]
Conditions	mass density [kg/m3]	refractive index
[1]	687.75	–
[2]	–	1.389

CC(C)CC(C)(C)C [2,2,4-trimethylpentane] + CCCC(=O)OC
Conditions	mass density [kg/m3]
[3], x1 = 1	687.75

CC(C)CC(C)(C)C [2,2,4-trimethylpentane] + CCCCC(=O)OC
Conditions	mass density [kg/m3]
[3], x1 = 1	687.75

CC(C)CC(C)(C)C [2,2,4-trimethylpentane] + COC(C)=O
Conditions	mass density [kg/m3]
[3], x1 = 1	687.75

CCCC(=O)OC [methyl butanoate]
Conditions	mass density [kg/m3]	refractive index
[1]	892.34	–
[2]	–	1.3845

CCCC(=O)OC [methyl butanoate] + CC(C)CC(C)(C)C
Conditions	excess molar enthalpy [kcal/mol]	mass density [kg/m3]
[3], x2 = 0	–	892.34
[3], x2 = 0.0344	–	881.71
[3], x2 = 0.0633	–	873.2
[3], x2 = 0.1096	–	860.1
[3], x2 = 0.1334	–	853.55
[3], x2 = 0.1539	–	848
[3], x2 = 0.2013	–	835.7
[3], x2 = 0.2471	–	824.1
[3], x2 = 0.2981	–	811.9
[3], x2 = 0.3973	–	789.58
[3], x2 = 0.441	–	780.3
[3], x2 = 0.5431	–	760
[3], x2 = 0.5901	–	751.22
[3], x2 = 0.6801	–	735.3
[3], x2 = 0.7243	–	727.9
[3], x2 = 0.8239	–	712.2
[3], x2 = 0.8708	–	705.2
[3], x2 = 0.8863	–	703.02
[3], x2 = 0.9158	–	698.8
[3], x2 = 0.9816	–	689.84
[4], x2 = 0.0389	0.0385	–
[4], x2 = 0.0858	0.0793	–
[4], x2 = 0.1367	0.119	–
[4], x2 = 0.1916	0.156	–
[4], x2 = 0.2446	0.186	–
[4], x2 = 0.2982	0.211	–
[4], x2 = 0.3481	0.23	–
[4], x2 = 0.3959	0.243	–
[4], x2 = 0.4256	0.251	–
[4], x2 = 0.4407	0.252	–
[4], x2 = 0.4767	0.254	–
[4], x2 = 0.5375	0.255	–
[4], x2 = 0.6052	0.246	–
[4], x2 = 0.6813	0.225	–
[4], x2 = 0.7629	0.189	–
[4], x2 = 0.8494	0.135	–
[4], x2 = 0.9353	0.0722	–

CCCC(=O)OC [methyl butanoate] + CCCCCCCC
Conditions	excess molar enthalpy [kcal/mol]	mass density [kg/m3]
[3], x2 = 0	–	892.34
[3], x2 = 0.059	–	875.04
[3], x2 = 0.1109	–	860.65
[3], x2 = 0.152	–	849.82
[3], x2 = 0.2051	–	836.56
[3], x2 = 0.2557	–	824.52
[3], x2 = 0.2992	–	814.89
[3], x2 = 0.3501	–	803.53
[3], x2 = 0.4045	–	792.24
[3], x2 = 0.4516	–	782.9
[3], x2 = 0.4978	–	774.12
[3], x2 = 0.5469	–	765.18
[3], x2 = 0.5862	–	758.27
[3], x2 = 0.6551	–	746.75
[3], x2 = 0.6989	–	739.74
[3], x2 = 0.7471	–	732.42
[3], x2 = 0.7931	–	725.7
[3], x2 = 0.8428	–	718.65
[3], x2 = 0.9009	–	710.74
[3], x2 = 0.9367	–	706.37
[3], x2 = 0.9651	–	702.84
[3], x2 = 0.9655	–	702.79
[4], x2 = 0.0438	0.0509	–
[4], x2 = 0.0922	0.0987	–
[4], x2 = 0.144	0.144	–
[4], x2 = 0.1978	0.184	–
[4], x2 = 0.2521	0.218	–
[4], x2 = 0.3043	0.244	–
[4], x2 = 0.3543	0.264	–
[4], x2 = 0.403	0.278	–
[4], x2 = 0.4321	0.286	–
[4], x2 = 0.4779	0.291	–
[4], x2 = 0.5368	0.288	–
[4], x2 = 0.6033	0.276	–
[4], x2 = 0.676	0.251	–
[4], x2 = 0.757	0.21	–
[4], x2 = 0.8413	0.153	–
[4], x2 = 0.9231	0.0865	–

CCCC(=O)OC [methyl butanoate] + COC(C)=O
Conditions	excess molar enthalpy, [4] [kcal/mol]	mass density, [3] [kg/m3]
x1 = 0.0106	–	926.21
x1 = 0.027	0.00526	–
x1 = 0.0564	–	923.86
x1 = 0.0962	0.0127	–
x1 = 0.1023	–	921.52
x1 = 0.1361	–	919.91
x1 = 0.1645	0.0198	–
x1 = 0.203	–	916.91
x1 = 0.226	0.0244	–
x1 = 0.2536	–	914.74
x1 = 0.2888	0.0287	–
x1 = 0.3054	–	912.64
x1 = 0.3478	0.0323	–
x1 = 0.4002	0.0342	–
x1 = 0.4122	–	908.65
x1 = 0.4437	0.0356	–
x1 = 0.4511	–	907.3
x1 = 0.4822	0.0361	–
x1 = 0.5276	0.0356	–
x1 = 0.5456	–	904.19
x1 = 0.5725	0.0349	–
x1 = 0.5906	–	902.8
x1 = 0.6148	–	902.08
x1 = 0.6268	0.033	–
x1 = 0.6958	0.0292	899.76
x1 = 0.7394	–	898.57
x1 = 0.7669	0.0239	–
x1 = 0.7873	–	897.29
x1 = 0.8368	–	896.07
x1 = 0.8497	0.0165	–
x1 = 0.8884	–	894.85
x1 = 0.9313	0.0086	–
x1 = 0.9538	–	893.32
x1 = 0.974	–	892.87
x1 = 1	–	892.34

COC(C)=O [methyl ethanoate]
Conditions	mass density [kg/m3]	refractive index
[1]	927.16	–
[2]	–	1.3588

COC(C)=O [methyl ethanoate] + CC(C)CC(C)(C)C
Conditions	excess molar enthalpy [kcal/mol]	mass density [kg/m3]
[3], x2 = 0	–	927.16
[3], x2 = 0.0375	–	906.89
[3], x2 = 0.1025	–	876.58
[3], x2 = 0.1652	–	851.09
[3], x2 = 0.1775	–	846.59
[3], x2 = 0.2189	–	832.07
[3], x2 = 0.2615	–	818.03
[3], x2 = 0.302	–	805.95
[3], x2 = 0.3902	–	782.41
[3], x2 = 0.4061	–	778.52
[3], x2 = 0.4249	–	774.09
[3], x2 = 0.4627	–	765.54
[3], x2 = 0.5239	–	752.92
[3], x2 = 0.5411	–	749.57
[3], x2 = 0.61	–	737.18
[3], x2 = 0.6612	–	728.76
[3], x2 = 0.6786	–	726.1
[3], x2 = 0.7359	–	717.6
[3], x2 = 0.8086	–	708.07
[3], x2 = 0.8803	–	699.86
[3], x2 = 0.9521	–	692.07
[4], x2 = 0.02	0.037	–
[4], x2 = 0.0525	0.0989	–
[4], x2 = 0.0892	0.158	–
[4], x2 = 0.1241	0.205	–
[4], x2 = 0.1687	0.25	–
[4], x2 = 0.2084	0.291	–
[4], x2 = 0.256	0.331	–
[4], x2 = 0.3079	0.369	–
[4], x2 = 0.3608	0.397	–
[4], x2 = 0.3915	0.409	–
[4], x2 = 0.4323	0.421	–
[4], x2 = 0.4764	0.428	–
[4], x2 = 0.5406	0.42	–
[4], x2 = 0.6163	0.393	–
[4], x2 = 0.6888	0.348	–
[4], x2 = 0.7833	0.275	–
[4], x2 = 0.8597	0.189	–
[4], x2 = 0.9422	0.0851	–

From the NIST ThermoML archive (doi:10.1021/acs.jced.5b00813)
